Counter-ions that a name gives are not always drawn.
Key:
[1] = target: T1, human H4 receptor (Homo sapiens, UniProt Q9H3N8); experiment: biochemical
[2] = target: T1, human H4 receptor; experiment: biochemical; remark: listed apart in the source
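Throughout, for IC50: membranes from SH-SY5Y cells with stable human H4 receptor expression, incubated with GDP 10 µM, radioactivity retained on filters counted by liquid scintillation.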
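Throughout, for Ki: radioligand displacement of a [3H]-labelled ligand from membranes of CHO cells stably expressing human H4 receptor, bound radioactivity counted on filters by liquid scintillation.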

T1 sequence (Q9H3N8 whole entry): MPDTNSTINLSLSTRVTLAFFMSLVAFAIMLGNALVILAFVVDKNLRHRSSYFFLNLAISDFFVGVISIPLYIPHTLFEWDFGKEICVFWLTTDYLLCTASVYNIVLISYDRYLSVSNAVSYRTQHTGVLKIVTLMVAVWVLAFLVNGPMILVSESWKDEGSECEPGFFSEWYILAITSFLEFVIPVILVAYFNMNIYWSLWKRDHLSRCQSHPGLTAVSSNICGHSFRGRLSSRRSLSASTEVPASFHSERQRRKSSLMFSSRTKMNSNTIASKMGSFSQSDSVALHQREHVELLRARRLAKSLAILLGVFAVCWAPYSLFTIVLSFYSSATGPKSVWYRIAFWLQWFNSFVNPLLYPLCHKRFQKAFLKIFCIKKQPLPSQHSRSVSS

SMILES	Ki [1] [nM]	IC50 [2] [nM]
CN1CCC(OC2c3ccccc3CCn3cc(C=CC4CC4)nc32)CC1 (stereo not drawn) [Example 99, 2-(2-cyclopropylvinyl)-4-(1-methylpiperidin-4-yloxy)-9,10-dihydro-4H-3,10a-diaza-benzo[f]azulene oxalate]	< 300	< 300
CC(=O)c1ccc(-c2cn3c(n2)C(OC2CCN(C)CC2)c2ccccc2CC3)cc1 (stereo not drawn) [Example 11, 1-{4-[4-(1-methylpiperidin-4-yloxy)-9,10-dihydro-4H-3,10a-diaza-benzo[f]azulen-2-yl]-phenyl}ethanone]	< 30	< 300
CN1CCC(OC2c3ccccc3CCn3cc(C4=CCCCC4)nc32)CC1 (stereo not drawn) [Example 62, 2-cyclohex-1-enyl-4-(1-methylpiperidin-4-yloxy)-9,10-dihydro-4H-3,10a-diaza-benzo[f]azulene oxalate]	< 300	< 300
Cc1ccc(-c2cn3c(n2)C(OC2CCN(C)CC2)c2ccccc2CC3)c(Cl)c1 (stereo not drawn) [Example 75, 2-(2-chloro-4-methylphenyl)-4-(1-methylpiperidin-4-yloxy)-9,10-dihydro-4H-3,10a-diaza-benzo[f]azulene oxalate]	< 300	< 30
CN1CCC(OC2c3ccccc3CCn3cc(C4=CCCC4)nc32)CC1 (stereo not drawn) [Example 65, 2-cyclopent-1-enyl-4-(1-methylpiperidin-4-yloxy)-9,10-dihydro-4H-3,10a-diaza-benzo[f]azulene]	< 300	< 1000
CN1CCC(OC2c3ccccc3CCn3cc(-c4ccc(CC#N)cc4)nc32)CC1 (stereo not drawn) [Example 33, {4-[4-(1-methylpiperidin-4-yloxy)-9,10-dihydro-4H-3,10a-diaza-benzo[f]azulen-2-yl]-phenyl}-acetonitrile oxalate]	< 300	< 300
CN1CCC(OC2c3ccccc3CCn3c2nc(-c2ccccc2)c3C(N)=O)CC1 (stereo not drawn) [Example 254, 4-(1-methylpiperidin-4-yloxy)-2-phenyl-9,10-dihydro-4H-3,10a-diaza-benzo[f]azulene-1-carboxylic acid amide]	< 300	< 300
CN1CCC(OC2c3ccccc3CCn3cc(CCCc4ccccc4)nc32)CC1 (stereo not drawn) [Example 87, 4-(1-methylpiperidin-4-yloxy)-2-(3-phenylpropyl)-9,10-dihydro-4H-3,10a-diaza-benzo[f]azulene oxalate]	< 30	< 30
CN1CCC(OC2c3ccccc3CCn3cc(C=CCc4ccccc4)nc32)CC1 (stereo not drawn) [Example 76, 4-(1-methylpiperidin-4-yloxy)-2-(3-phenylpropenyl)-9,10-dihydro-4H-3,10a-diaza-benzo[f]azulene oxalate]	< 30	< 300
CN1CCC(OC2c3ccccc3CCn3cc(SCc4ccccc4)nc32)CC1 (stereo not drawn) [Example 67, 2-benzylsulfanyl-4-(1-methylpiperidin-4-yloxy)-9,10-dihydro-4H-3,10a-diaza-benzo[f]azulene oxalate]	< 300	< 300
C=CCc1cn2c(n1)C(OC1CCN(C)CC1)c1ccccc1CC2 (stereo not drawn) [Example 30, 2-allyl-4-(1-methylpiperidin-4-yloxy)-9,10-dihydro-4H-3,10a-diaza-benzo[f]azulene oxalate]	< 300	< 300
CCCc1ccc(-c2cn3c(n2)C(OC2CCN(C)CC2)c2ccccc2CC3)cc1 (stereo not drawn) [Example 22, 4-(1-methylpiperidin-4-yloxy)-2-(4-propylphenyl)-9,10-dihydro-4H-3,10a-diaza-benzo[f]azulene]	< 30	< 300
CN1CCC(OC2c3ccccc3CCn3cc(-c4ccc(C(=O)C(F)(F)F)cc4)nc32)CC1 (stereo not drawn) [Example 31, 2,2,2-trifluoro-1-{4-[4-(1-methylpiperidin-4-yloxy)-9,10-dihydro-4H-3,10a-diaza-benzo[f]azulen-2-yl]-phenyl}-ethanone oxalate]	< 300	< 30
CN1CCC(OC2c3ccccc3CCn3cc(SC4CCCC4)nc32)CC1 (stereo not drawn) [Example 86, 2-cyclopentylsulfanyl-4-(1-methylpiperidin-4-yloxy)-9,10-dihydro-4H-3,10a-diaza-benzo[f]azulene oxalate]	< 300	< 30
Cc1c(C=CC(C)(C)C)nc2n1CCc1ccccc1C2OC1CCN(C)CC1 (stereo not drawn) [Example 225, 2-(3,3-dimethyl-but-1-enyl)-1-methyl-4-(1-methylpiperidin-4-yloxy)-9,10-dihydro-4H-3,10a-diaza-benzo[f]azulene]	< 30	< 30
C=C(C)Cc1nc2n(c1C#N)CCc1ccccc1C2OC1CCN(C)CC1 (stereo not drawn) [Example 259, 2-(2-methylallyl)-4-(1-methylpiperidin-4-yloxy)-9,10-dihydro-4H-3,10a-diaza-benzo[f]azulene-1-carbonitrile]	< 300	< 300
CN1CCC(OC2c3ccccc3CCn3c2nc(I)c3I)CC1 (stereo not drawn) [Example 219, 1,2-diiodo-4-(1-methylpiperidin-4-yloxy)-9,10-dihydro-4H-3,10a-diaza-benzo[f]azulene]	< 30	< 30
CN1CCC(OC2c3ccccc3CCn3cc(C=CC(C)(C)C)nc32)CC1 (stereo not drawn) [Example 93, 2-(3,3-dimethylbut-1-enyl)-4-(1-methylpiperidin-4-yloxy)-9,10-dihydro-4H-3,10a-diaza-benzo[f]azulene]	< 30	< 30
CN1CCC(OC2c3ccccc3CCn3c2nc(-c2ccccc2)c3C(F)(F)F)CC1 (stereo not drawn) [Example 255, 4-(1-methylpiperidin-4-yloxy)-2-phenyl-1-trifluoromethyl-9,10-dihydro-4H-3,10a-diaza-benzo[f]azulene]	< 30	< 300
Cc1c(C2=CCCCC2)nc2n1CCc1ccccc1C2OC1CCN(C)CC1 (stereo not drawn) [Example 226, 2-cyclohex-1-enyl-1-methyl-4-(1-methylpiperidin-4-yloxy)-9,10-dihydro-4H-3,10a-diaza-benzo[f]azulene]	< 30	< 30
CCc1ccc(-c2cn3c(n2)C(OC2CCN(C)CC2)c2ccccc2CC3)cc1 (stereo not drawn) [Example 21, 2-(4-ethylphenyl)-4-(1-methylpiperidin-4-yloxy)-9,10-dihydro-4H-3,10a-diaza-benzo[f]azulene]	< 300	< 30
CN1CCC(OC2c3ccccc3CCn3cc(-c4ccc(S(=O)(=O)N(C)C)cc4)nc32)CC1 (stereo not drawn) [Example 29, N,N-dimethyl-4-[4-(1-methylpiperidin-4-yloxy)-9,10-dihydro-4H-3,10a-diaza-benzo[f]azulen-2-yl]-benzenesulfonamide]	< 300	< 300
CN1CCC(OC2c3ccccc3CCn3cc(-c4ccc(N(C)C(=O)OC(C)(C)C)cc4)nc32)CC1 (stereo not drawn) [Example 97, methyl-{4-[4-(1-methylpiperidin-4-yloxy)-9,10-dihydro-4H-3,10a-diaza-benzo[f]azulen-2-yl]-phenyl}-carbamic acid tert-butyl ester oxalate]	< 30	< 30
CCCCc1ccc(-c2cn3c(n2)C(OC2CCN(C)CC2)c2ccccc2CC3)cc1 (stereo not drawn) [Example 41, 2-(4-butylphenyl)-4-(1-methylpiperidin-4-yloxy)-9,10-dihydro-4H-3,10a-diaza-benzo[f]azulene oxalate]	< 30	< 300
